Experimental data: PubChem BioAssay (NCI)
Several values for one entry are separate records, joined by “and”; a condition that tells them apart may be missing. Equal values may be shown once.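 A five-concentration, 48-hour dose response in 96-well plates underlies each endpoint, interpolated linearly between surrounding concentrations. GI50: concentration for 50% inhibition of growth. TGI: concentration producing complete growth inhibition.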

Key:
Assay in all cases: DTP human tumour cell line panel, 48 h
A549 NSCLC = tested on: A549 NSCLC
PC-3 prostate = tested on: PC-3 prostate
HCC-2998 colon = tested on: HCC-2998 colon
SK-MEL-28 melanoma = tested on: SK-MEL-28 melanoma
HL-60(TB) leukemia = tested on: HL-60(TB) leukemia
M14 melanoma = tested on: M14 melanoma
CCRF-CEM leukemia = tested on: CCRF-CEM leukemia
A498 renal = tested on: A498 renal
T-47D breast = tested on: T-47D breast
ACHN renal = tested on: ACHN renal

SMILES | TGI (A549 NSCLC) | TGI (PC-3 prostate) | TGI (HCC-2998 colon) | TGI (SK-MEL-28 melanoma) | TGI (HL-60(TB) leukemia) | TGI (M14 melanoma) | TGI (CCRF-CEM leukemia) [µM] | TGI (A498 renal) | TGI (T-47D breast) | TGI (ACHN renal) | GI50 (A549 NSCLC) | GI50 (PC-3 prostate) | GI50 (HCC-2998 colon) | GI50 (SK-MEL-28 melanoma) | GI50 (HL-60(TB) leukemia) | GI50 (M14 melanoma) | GI50 (CCRF-CEM leukemia) | GI50 (A498 renal) | GI50 (T-47D breast) | GI50 (ACHN renal)
O=C1C(c2ccccc2)=[N+]([O-])c2ccccc21 | 48.7 µM | 27.3 µM | 38.8 µM | 33.2 µM | 42.2 µM | 27 µM | > 100 | 34 µM | 7.25 µM | 33.6 µM | – | – | – | – | – | – | – | – | – | –
O=C(O)c1ccc2c(c1)CCCC(c1ccc(Cl)cc1Cl)=C2c1ccc(O[C@H]2CCN(CCCF)C2)cc1 | 24.1 µM | 24.2 µM | 27.9 µM | 25.1 µM | 22.7 µM | 28.7 µM | 27.6 | 24.6 µM | 22.5 µM | 24.3 µM | 6.7 µM | 10.4 µM | 13.6 µM | 11.5 µM | 7.41 µM | 13.2 µM | 10.8 µM | 11.5 µM | < 0.01 µM | 11.7 µM
C=CC(=O)Nc1cc2c(Nc3ccc(F)c(Cl)c3)ncnc2cc1OCCCN1CCOCC1 | 17 µM and > 10 µM | 9.85 µM and > 10 µM | 3.46 µM and > 6.08 µM | 3.21 µM and > 10 µM | 4.88 µM and 7.33 µM | 3.52 µM and > 10 µM | > 27.4 | 2.51 µM and 5.15 µM | 18.7 µM and > 10 µM | 2.11 µM and > 10 µM | 2.37 µM and 5.1 µM | 2.76 µM and 4.33 µM | 1.82 µM and 2.67 µM | 1.67 µM and > 6.85 µM | 2 µM and 1.73 µM | 1.7 µM and 4.48 µM | 2.19 µM and 2.63 µM | 0.357 µM and 0.681 µM | 0.0677 µM and 0.182 µM | < 0.01 µM and 0.0448 µM
NC(N)=NCCC1OC(=O)C2=C1c1c(O)ccc3nccc(c13)O2 (centres undefined) | > 100 µM | > 100 µM | > 100 µM | > 100 µM | > 100 µM | > 100 µM | > 100 | > 100 µM | > 100 µM | > 100 µM | > 100 µM | > 100 µM | > 100 µM | > 100 µM | > 100 µM | > 100 µM | > 100 µM | > 100 µM | 95.1 µM | > 100 µM
CCOc1cc(/C=N\Nc2nnc(C)n2N)c(C)cc1N(CCCl)CCCl | > 20.6 µM | 7.41 µM | 16 µM | 53.8 µM | 3.82 µM | > 49.8 µM | 32.5 | 2.41 µM | 14.3 µM | > 100 µM | 0.638 µM | 0.927 µM | 1.45 µM | 1.97 µM | 0.351 µM | 0.776 µM | 0.655 µM | 0.212 µM | 0.46 µM | 0.805 µM
COc1ccc2[nH]c(O)c(C(=Nc3ccc(N(C)C(=O)CN4CCN(C)CC4)cc3)c3ccccc3)c2c1 | 14.1 µM | 17.5 µM | 8.59 µM | 6.12 µM | 2.86 µM | 2.89 µM | 10.4 | 3.45 µM | 15.9 µM | 10.8 µM | 2.73 µM | 3.52 µM | 2.47 µM | 2.11 µM | 0.88 µM | 1.26 µM | 2.68 µM | 1.64 µM | 3.54 µM | 2.54 µM
COc1ccc(N2C(=O)[C@H]3CC(C)c4c([nH]c5ccccc45)[C@H]3C2=O)cc1 (some centres undefined) | > 90.7 µM | 23.6 µM | 69 µM | 57.8 µM | 20.1 µM | 39.9 µM | 46.9 | 77.7 µM | 68.8 µM | > 76.8 µM | – | – | – | – | – | – | – | – | – | –
O=C(O)C1CCCCC1C(=O)O.[NH-]C1CCC1.[NH2-].[Pt+2] (centres undefined) | > 100 µM | > 100 µM | – | 31.4 µM | 52.8 µM | 27.3 µM | – | – | 34.7 µM | 31.3 µM | 30.7 µM | > 100 µM | – | 15.9 µM | 5.98 µM | 12.6 µM | – | – | 11 µM | 16.4 µM
N.N.N.N.O=C([O-])C(Cl)Cl.O=C([O-])C(Cl)Cl.[Co+3].[O-][Cl+3]([O-])([O-])[O-] | > 100 µM | – | > 100 µM | > 100 µM | > 100 µM | > 100 µM | > 100 | > 100 µM | – | > 100 µM | > 100 µM | – | > 100 µM | > 100 µM | > 100 µM | > 100 µM | > 100 µM | > 100 µM | – | > 100 µM
COc1ccc(/C=C2\CCCC(C(NO)c3ccc(OC)cc3)C2=NO)cc1 (centres undefined) | > 100 µM | – | > 100 µM | 95.3 µM | 43.1 µM | > 100 µM | > 100 | > 100 µM | – | > 100 µM | – | – | – | – | – | – | – | – | – | –
COc1cc(/C=C2\C(=O)Nc3ccc(N(C)C)cc32)cc(OC)c1OC | 35.9 µM | > 100 µM | 46.4 µM | > 100 µM | 5.8 µM | – | 10.1 | > 100 µM | > 31.3 µM | 98.4 µM | 3.86 µM | 1.73 µM | 8.46 µM | 5.87 µM | 1.35 µM | – | 2.28 µM | 4.67 µM | 2.49 µM | 4.72 µM
Cc1cc(Cl)ccc1Nc1nc(C(F)(F)F)ccc1C(=O)N/N=C/c1ccc([N+](=O)[O-])cc1 | 5.54 µM | – | 4.28 µM | – | – | 7.96 µM | 0.526 | 7.1 µM | 11.6 µM | 5.14 µM | 1.07 µM | 0.598 µM | 1.43 µM | 1.22 µM | – | 2.18 µM | 0.144 µM | 1.41 µM | 2.39 µM | 1.08 µM
C/C(CCc1ccccc1)=N\NC(N)=S | > 100 µM | – | > 100 µM | > 100 µM | > 100 µM | > 100 µM | > 100 | > 100 µM | – | > 100 µM | – | – | – | – | – | – | – | – | – | –
NCCCCNc1ccc2c(=O)[nH][nH]c(=O)c2c1 | > 100 µM | – | > 100 µM | > 100 µM | > 100 µM | > 100 µM | > 100 | > 100 µM | – | > 100 µM | – | – | – | – | – | – | – | – | – | –
C[C@]12CCCC(=O)C1(O)C[C@H](C(=O)O)CC2 (some centres undefined) | > 100 µM | – | > 100 µM | > 100 µM | > 100 µM | > 100 µM | > 100 | > 100 µM | – | > 100 µM | – | – | – | – | – | – | – | – | – | –
COC(=O)C(CC(=O)Nc1ccc(C)cc1)C(=O)C(=O)Nc1ccccc1C(C)C (centres undefined) | > 100 µM | – | > 100 µM | > 100 µM | > 100 µM | > 100 µM | > 100 | > 100 µM | – | > 100 µM | – | – | – | – | – | – | – | – | – | –
